Experimental data taken from patent US20120015907A1, “Furopyridine compounds and uses thereof” (NOVARTIS AG, priority 2010, published 2012).

Biological target: T1, HCV polymerase (Hepatitis C virus genotype 1b, UniProt Q9WMX2)
T1 construct: (His)6 (C)
Assay: biochemical
Settings: NS5B polymerase IC50 μM, polymerase assay of Biological Example 1

| Compound | IC50 [µM] |
| --- | --- |
| CCOP(C)(=O)CCCCN(c1nc2oc(-c3ccc(C)cc3)c(C(=O)NC)c2cc1C1CC1)S(C)(=O)=O (stereo not drawn) [Example 23.99993, ethyl 4-(N-(5-cyclopropyl-3-(methylcarbamoyl)-2-p-tolylfuro[2,3-b]pyridin-6-yl)methylsulfonamido)butyl (methyl)phosphinate] | 0.011 |
| CCc1ccc(-c2oc3nc(N(CCCCCP(C)(=O)O)S(C)(=O)=O)c(I)cc3c2C(=O)NC)cc1 [Example 23.9997, 5-(N-(2-(4-ethylphenyl)-5-iodo-3-(methylcarbamoyl)furo[2,3-b]pyridin-6-yl)methylsulfonamido)pentyl (methyl)phosphinic acid] | 0.012 |

Same assay, conditions: polymerase assay of Biological Example 1; read-out: NS5B polymerase IC50

| IC50 [µM] | Compound |
| --- | --- |
| 0.002 | CCc1ccc(-c2oc3nc(N(CCCC4(C(=O)O)CCOCC4)S(C)(=O)=O)c(C4CC4)cc3c2C(=O)NC)cc1 [Example 29.7, 4-(3-(N-(5-cyclopropyl-2-(4-ethylphenyl)-3-(methylcarbamoyl)furo[2,3-b]pyridin-6-yl)methylsulfonamido)propyl) tetrahydro-2H-pyran-4-carboxylic acid] |
| 0.051 | CNC(=O)c1c(-c2ccc(F)cc2)oc2nc(N(Cc3cccc(C(N)=O)c3)S(C)(=O)=O)c(I)cc12 [Example 18.8, 6-(N-(3-carbamoylbenzyl)methylsulfonamido)-2-(4-fluorophenyl)-5-iodo-N-methylfuro[2,3-b]pyridine-3-carboxamide] |
| 0.129 | CNC(=O)c1c(-c2ccc(C)cc2)oc2nc(N(CCCC3(C(=O)O)CCNCC3)S(C)(=O)=O)c(C3CC3)cc12 [Example 29.99991, 4-(3-(N-(5-cyclopropyl-3-(methylcarbamoyl)-2-p-tolylfuro[2,3-b]pyridin-6-yl)methylsulfonamido)propyl) piperidine-4-carboxylic acid] |
| 0.281 | CCc1cc2c(C(=O)NC)c(-c3ccc(F)cc3)oc2nc1N(CCc1ccc(OC)c(OC)c1)S(C)(=O)=O [Example 22.2, 6-(N-(3,4-dimethoxyphenethyl)methylsulfonamido)-5-ethyl-2-(4-fluorophenyl)-N-methylfuro[2,3-b]pyridine-3-carboxamide] |
| 0.509 | CNC(=O)c1c(-c2ccc(F)cc2)oc2nc3c(cc12)C(C)C(O)CCCCN3S(C)(=O)=O (stereo not drawn) [Example 38, 2-(4-Fluoro-phenyl)-6-hydroxy-11-methanesulfonyl-5-methyl-6,7,8,9,10,11-hexahydro-5H-1-oxa-11,12-diaza-cyclonona[f]indene-3-carboxylic acid methylamide] |
| 0.02 | CNC(=O)c1c(-c2ccc(C)cc2)oc2nc(N(CCOCCC(CCOC)C(=O)O)S(C)(=O)=O)c(C3CC3)cc12 (stereo not drawn) [Example 23.999999, 4-{2-[(5-Cyclopropyl-3-methylcarbamoyl-2-p-tolyl-furo[2,3-b]pyridin-6-yl)-methanesulfonyl-amino]-ethoxy}-2-(2-methoxy-ethyl)-butyric acid] |
| 1.84 | CNC(=O)c1c(-c2ccc(F)cc2)oc2nc(N(CCCCN)S(C)(=O)=O)c(I)cc12 [Example 20, 6-[(4-Amino-butyl)-methanesulfonyl-amino]-2-(4-fluoro-phenyl)-5-iodo-furo[2,3-b]pyridine-3-carboxylic acid methylamide] |
| 0.002 | CNC(=O)c1c(-c2ccc(C)cc2)oc2nc(N(CCCCCO)S(C)(=O)=O)c(C3CC3)cc12 [Example 23.99996, 5-cyclopropyl-6-(N-(5-hydroxypentyl)methylsulfon amido)-N-methyl-2-p-tolylfuro[2,3-b]pyridine-3-carboxamide] |
| 0.045 | CCc1cc2c(C(=O)NC)c(-c3ccc(F)cc3)oc2nc1N(CCOc1ccc2cccnc2c1)S(C)(=O)=O [Example 22.8, 5-ethyl-2-(4-fluorophenyl)-N-methyl-6-(N-(2-(quinolin-7-yloxy)ethyl)methylsulfonamido)furo[2,3-b]pyridine-3-carboxamide] |
| 0.048 | CNC(=O)c1c(-c2ccc(F)cc2)oc2nc3c(cc12)C(C)CCCCCN3S(C)(=O)=O (stereo not drawn) [Example 37, 2-(4-Fluoro-phenyl)-11-methanesulfonyl-5-methyl-6,7,8,9,10,11-hexahydro-5H-1-oxa-11,12-diaza-cyclonona[f]indene-3-carboxylic acid methylamide] |
| 0.032 | CNC(=O)c1c(-c2ccc(C)cc2)oc2nc(N(CCOCCC3(C(=O)O)CCOCC3)S(C)(=O)=O)c(C3CC3)cc12 [Example 29.99995, 4-(2-(2-(N-(5-cyclopropyl-3-(methylcarbamoyl)-2-p-tolylfuro[2,3-b]pyridin-6-yl)methylsulfonamido)ethoxy)ethyl)tetrahydro-2H-pyran-4-carboxylic acid] |
| 0.169 | CCc1cc2c(C(=O)NC)c(-c3ccc(F)cc3)oc2nc1N(CCc1scnc1C)S(C)(=O)=O [Example 22, 5-ethyl-2-(4-fluorophenyl)-N-methyl-6-(N-(2-(4-methylthiazol-5-yl)ethyl)methylsulfonamido)furo[2,3-b]pyridine-3-carboxamide] |
| 0.029 | CNC(=O)c1c(-c2ccc(Cl)cc2)oc2nc(N(CCCS(C)(=O)=O)S(C)(=O)=O)c(I)cc12 [Example 18.991, 2-(4-chlorophenyl)-5-iodo-N-methyl-6-(N-(3-(methylsulfonyl)propyl)methylsulfonamido)furo[2,3-b]pyridine-3-carboxamide] |
| 0.003 | CNC(=O)c1c(-c2ccc(C)cc2)oc2nc(N(CCCCc3nn[nH]n3)S(C)(=O)=O)c(C3CC3)cc12 [Example 29.93, 6-(N-(4-(2H-tetrazol-5-yl)butyl)methylsulfonamido)-5-cyclopropyl-N-methyl-2-p-tolylfuro[2,3-b]pyridine-3-carboxamide] |
| 0.003 | CNC(=O)c1c(-c2ccc(C)cc2)oc2nc(N(CCCCCBr)S(C)(=O)=O)c(C3CC3)cc12 [Example 29.998, 6-(N-(5-bromopentyl)methylsulfonamido)-5-cyclopropyl-N-methyl-2-p-tolylfuro[2,3-b]pyridine-3-carboxamide] |
| 0.01 | CCc1cc2c(C(=O)NC)c(-c3ccc(F)cc3)oc2nc1N(CCCCC(=O)OC)S(C)(=O)=O [Example 21, methyl 5-(N-(5-ethyl-2-(4-fluorophenyl)-3-(methylcarbamoyl)furo[2,3-b]pyridin-6-yl)methylsulfonamido)pentanoate] |
| 0.012 | CNC(=O)c1c(-c2ccc(C)cc2)oc2nc(N(CCCC(CC(=O)O)OCCOC)S(C)(=O)=O)c(C3CC3)cc12 (stereo not drawn) [Example 29.999996, 6-(N-(5-cyclopropyl-3-(methylcarbamoyl)-2-p-tolylfuro[2,3-b]pyridin-6-yl)methylsulfonamido)-3-(2-methoxyethoxy) hexanoic acid] |
| 0.734 | CNC(=O)c1c(-c2ccc(F)cc2)oc2nc(N(C)S(C)(=O)=O)c(CC3CO3)cc12 (stereo not drawn) [Example 12, 2-(4-fluorophenyl)-N-methyl-6-(N-methylmethylsulfonamido)-5-(oxiran-2-ylmethyl)furo[2,3-b]pyridine-3-carboxamide] |
| 0.083 | CCc1cc2c(C(=O)NC)c(-c3ccc(F)cc3)oc2nc1N(CCOc1ccccc1C(=O)OC)S(C)(=O)=O [Example 22.5, methyl 2-(2-(N-(5-ethyl-2-(4-fluorophenyl)-3-(methylcarbamoyl)furo[2,3-b]pyridin-6-yl)methylsulfonamido)ethoxy)benzoate] |
| 0.005 | CCOC(=O)/C=C/CCCN(c1nc2oc(-c3ccc(C)cc3)c(C(=O)NC)c2cc1C1CC1)S(C)(=O)=O [Example 44.1, (E)-ethyl 6-(N-(5-cyclopropyl-3-(methylcarbamoyl)-2-p-tolylfuro[2,3-b]pyridin-6-yl)methylsulfonamido)hex-2-enoate] |
| 0.256 | CNC(=O)c1c(-c2ccc(F)cc2)oc2nc(N(C)S(C)(=O)=O)c(C)cc12 [Example 2.92, 2-(4-fluorophenyl)-N,5-dimethyl-6-(N-methylmethylsulfonamido)furo[2,3-b]pyridine-3-carboxamide] |
| 0.108 | CNC(=O)c1c(-c2ccc(F)cc2)oc2nc(N(CCCC(O)CO)S(C)(=O)=O)c(I)cc12 (stereo not drawn) [Example 18.93, 6-(N-(4,5-dihydroxypentyl)methylsulfonamido)-2-(4-fluorophenyl)-5-iodo-N-methylfuro[2,3-b]pyridine-3-carboxamide] |
| 0.072 | CCc1cc2c(C(=O)NC)c(-c3ccc(F)cc3)oc2nc1N(CCCCOc1ccccc1C#N)S(C)(=O)=O [Example 21.96, 6-(N-(4-(2-cyanophenoxy)butyl)methylsulfonamido)-5-ethyl-2-(4-fluorophenyl)-N-methylfuro[2,3-b]pyridine-3-carboxamide] |
| 0.237 | CNC(=O)c1c(-c2ccc(F)cc2)oc2nc(N(CCCOCCOC)S(C)(=O)=O)c(I)cc12 [Example 18.992, 2-(4-fluorophenyl)-5-iodo-6-(N-(3-(2-methoxyethoxy)propyl)methylsulfonamido)-N-methylfuro[2,3-b]pyridine-3-carboxamide] |
| 0.007 | CNC(=O)c1c(-c2ccc(C)cc2)oc2nc(N(CCOCCBr)S(C)(=O)=O)c(C3CC3)cc12 [Example 29.99994, 6-(N-(2-(2-bromoethoxy)ethyl)methylsulfonamido)-5-cyclopropyl-N-methyl-2-p-tolylfuro[2,3-b]pyridine-3-carboxamide] |
| 0.184 | CCc1cc2c(C(=O)NC)c(-c3ccc(F)cc3)oc2nc1N(CCCN(C)C(=O)c1ccccc1)S(C)(=O)=O [Example 23.998, 5-ethyl-2-(4-fluorophenyl)-N-methyl-6-(N-(3-(N-methylbenzamido)propyl)methylsulfonamido)furo[2,3-b]pyridine-3-carboxamide] |
| 0.208 | CNC(=O)c1c(-c2ccc(F)cc2)oc2nc(N(C)S(C)(=O)=O)c(CCCS(C)(=O)=O)cc12 [Example 4.94, 2-(4-fluorophenyl)-N-methyl-6-(N-methylmethylsulfonamido)-5-(3-(methylsulfonyl)propyl)furo[2,3-b]pyridine-3-carboxamide] |

| Compound | IC50 [µM] |
| --- | --- |
| CCc1cc2c(C(=O)NC)c(-c3ccc(F)cc3)oc2nc1N(CCCCl)S(C)(=O)=O [Example 22.997, 6-(N-(3-chloropropyl)methylsulfonamido)-5-ethyl-2-(4-fluorophenyl)-N-methylfuro[2,3-b]pyridine-3-carboximide] | 0.083 |
